The DC50 is the concentration at which degradation of the target reaches its halfway point.

Molecules are shown by their SMILES.

In one experiment the target is T1, ER (Homo sapiens, UniProt P03372).
T1 construct: host or cells: T47D and MCF7 human breast cancer cells
T1 sequence (P03372 1-595): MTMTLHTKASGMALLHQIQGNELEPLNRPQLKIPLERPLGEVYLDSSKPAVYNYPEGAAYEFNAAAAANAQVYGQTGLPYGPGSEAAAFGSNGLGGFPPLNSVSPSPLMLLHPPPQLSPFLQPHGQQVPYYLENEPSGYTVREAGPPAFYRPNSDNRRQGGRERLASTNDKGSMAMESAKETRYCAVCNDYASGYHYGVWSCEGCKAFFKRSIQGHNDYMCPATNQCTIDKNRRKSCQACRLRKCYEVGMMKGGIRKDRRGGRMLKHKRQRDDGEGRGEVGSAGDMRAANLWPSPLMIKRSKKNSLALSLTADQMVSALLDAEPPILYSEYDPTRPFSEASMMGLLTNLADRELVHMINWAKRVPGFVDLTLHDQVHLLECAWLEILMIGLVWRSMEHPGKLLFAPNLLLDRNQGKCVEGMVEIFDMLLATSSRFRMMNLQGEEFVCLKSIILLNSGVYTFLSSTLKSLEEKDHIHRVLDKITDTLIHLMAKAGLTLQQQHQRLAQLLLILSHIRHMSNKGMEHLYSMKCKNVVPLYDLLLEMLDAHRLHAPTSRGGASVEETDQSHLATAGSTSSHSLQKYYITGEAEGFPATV
The experiment is described as follows: ER degradation activity, in-cell western blot analysis in T47D cells. The experiment is classed as cell-based. To be noted: 16 hours, Table A does not say which cell line (T47D or MCF7), read-out: Potency (DC50). Summed up: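 In-cell western, T47D; compounds 16 h, 0.5% DMSO final; anti-rabbit-680/anti-mouse-800 secondaries, 1 h RT, dark; read on CLX imager. ER % vs untreated/DMSO wells (100%).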
As to `CCC(=C(c1ccc(O)cc1)c1ccc(N2CCC3(CCN(C(=O)CN4Cc5cc6c(cc5C4)C(=O)N(C4CCC(=O)NC4=O)C6=O)CC3)CC2)cc1)c1ccccc1` (stereo not shown) [E 188, 2-(2,6-dioxopiperidin-3-yl)-6-(2-(9-(4-(1-(4-hydroxyphenyl)-2-phenylbut-1-en-1-yl)phenyl)-3,9-diazaspiro[5.5]undecan-3-yl)-2-oxoethyl)-6,7-dihydropyrrolo[3,4-f]isoindole-1,3(2H,5H)-dione], the DC50 lay within 0.01 to 0.1 µM.

In the case of `C[C@@H]1Cc2c([nH]c3ccccc23)[C@@H](c2c(F)cc(CN3CCC4(CCC(C(=O)N5Cc6cc7c(cc6C5)C(=O)N(C5CCC(=O)NC5=O)C7=O)CC4)CC3)cc2F)N1CC(F)F` (stereo partly drawn) [E 382, 6-(3-(4-((1R,3R)-2-(2,2-difluoroethyl)-3-methyl-2,3,4,9-tetrahydro-1H-pyrido[3,4-b]indol-1-yl)-3,5-difluorobenzyl)-3-azaspiro[5.5]undecane-9-carbonyl)-2-(2,6-dioxopiperidin-3-yl)-6,7-dihydropyrrolo[3,4-f]isoindole-1,3(2H,5H)-dione], the DC50 is more than 0.1 µM.

Regarding `O=C1CCC(N2Cc3cc4c(cc3C2=O)CN(C2CCN(CC3CCN(c5ccc([C@@H]6c7ccc(O)cc7CC[C@@H]6c6ccc(F)cc6)cc5)CC3)CC2)C4)C(=O)N1` (stereo partly drawn) [E 275, 3-(6-(1-((1-(4-((1R,2S)-2-(4-fluorophenyl)-6-hydroxy-1,2,3,4-tetrahydronaphthalen-1-yl)phenyl)piperidin-4-yl)methyl)piperidin-4-yl)-1-oxo-3,5,6,7-tetrahydropyrrolo[3,4-f]isoindol-2(1H)-yl)piperidine-2,6-dione], the DC50 is less than 0.01 µM.

As to `O=C1CCC(N2C(=O)c3cc4c(cc3C2=O)CN(CC(=O)N2CCC3(CC2)CCN(c2cnc([C@@H]5c6ccc(O)cc6CC[C@@H]5c5ccccc5)cn2)CC3)C4)C(=O)N1` (mixture of isomers) [E 304, Rac-2-(2,6-dioxopiperidin-3-yl)-6-(2-(9-(5-((1S,2S)-6-hydroxy-2-phenyl-1,2,3,4-tetrahydronaphthalen-1-yl)pyrazin-2-yl)-3,9-diazaspiro[5.5]undecan-3-yl)-2-oxoethyl)-6,7-dihydropyrrolo[3,4-f]isoindole-1,3(2H,5H)-dione], the DC50 was more than 0.1 µM.

`O=C1CCC(N2C(=O)c3cc4c(cc3C2=O)CN(CC(=O)N2CCC[C@H](Oc3ccc([C@@H]5c6ccc(O)cc6CC[C@@H]5c5ccc(F)cc5)cc3)C2)C4)C(=O)N1` (mixture of isomers) [E 157, Rac-2-(2,6-dioxopiperidin-3-yl)-6-(2-((S)-3-(4-((1R,2S)-2-(4-fluorophenyl)-6-hydroxy-1,2,3,4-tetrahydronaphthalen-1-yl)phenoxy)piperidin-1-yl)-2-oxoethyl)-6,7-dihydropyrrolo[3,4-f]isoindole-1,3(2H,5H)-dione]: the DC50 was more than 0.1 µM.

As to `O=C1CCC(N2C(=O)c3cc4c(cc3C2=O)CN(CC(=O)N2CC3(CCN(c5ccc([C@@H]6c7ccc(O)cc7CC[C@@H]6c6ccccc6)cc5)CC3)C2)C4)C(=O)N1` (mixture of isomers) [E 9, Rac-2-(2,6-dioxopiperidin-3-yl)-6-(2-(7-(4-((1R,2S)-6-hydroxy-2-phenyl-1,2,3,4-tetrahydronaphthalen-1-yl)phenyl)-2,7-diazaspiro[3.5]nonan-2-yl)-2-oxoethyl)-6,7-dihydropyrrolo[3,4-f]isoindole-1,3(2H,5H)-dione], the DC50 is less than 0.01 µM.

With `O=C1CCC(N2C(=O)c3cc4c(cc3C2=O)CN(Cc2ccc(N3CCN(c5ccc([C@@H]6c7ccc(O)cc7CC[C@@H]6c6ccccc6)cc5)CC3)nc2)C4)C(=O)N1` (stereo partly drawn) [E 311, 2-(2,6-dioxopiperidin-3-yl)-6-((6-(4-(4-((1R,2S)-6-hydroxy-2-phenyl-1,2,3,4-tetrahydronaphthalen-1-yl)phenyl)piperazin-1-yl)pyridin-3-yl)methyl)-6,7-dihydropyrrolo[3,4-f]isoindole-1,3(2H,5H)-dione], the DC50 is more than 0.1 µM.

`O=C1CCC(N2C(=O)c3cc4c(cc3C2=O)CN(C(=O)CN2CCC3(CC2)CCN(c2c(F)cc([C@@H]5c6ccc(O)cc6CC[C@@H]5c5ccccc5)cc2F)C3)C4)C(=O)N1` (mixture of isomers) [E 155, Rac-6-(2-(2-(2,6-difluoro-4-((1R,2S)-6-hydroxy-2-phenyl-1,2,3,4-tetrahydronaphthalen-1-yl)phenyl)-2,8-diazaspiro[4.5]decan-8-yl)acetyl)-2-(2,6-dioxopiperidin-3-yl)-6,7-dihydropyrrolo[3,4-f]isoindole-1,3(2H,5H)-dione]: the DC50 is more than 0.1 µM.

Regarding `C[C@@H]1Cc2cc(O)ccc2[C@@H](c2c(F)cc(N3CCC(CN4CC(N5Cc6cc7c(cc6C5)C(=O)N(C5CCC(=O)NC5=O)C7=O)C4)CC3)cc2F)N1CC(F)F` (stereo partly drawn) [E 47, 6-(1-((1-(4-((1S,3R)-2-(2,2-difluoroethyl)-6-hydroxy-3-methyl-1,2,3,4-tetrahydroisoquinolin-1-yl)-3,5-difluorophenyl)piperidin-4-yl)methyl)azetidin-3-yl)-2-(2,6-dioxopiperidin-3-yl)-6,7-dihydropyrrolo[3,4-f]isoindole-1,3(2H,5H)-dione], the DC50 was more than 0.1 µM.

For the compound `C[C@@H]1Cc2c([nH]c3ccccc23)[C@@H](c2c(F)cc(CN3CCC4(CCC(CN5Cc6cc7c(cc6C5)C(=O)N(C5CCC(=O)NC5=O)C7=O)CC4)CC3)cc2F)N1CC(F)F` (stereo partly drawn) [E 380, 6-((3-(4-((1R,3R)-2-(2,2-difluoroethyl)-3-methyl-2,3,4,9-tetrahydro-1H-pyrido[3,4-b]indol-1-yl)-3,5-difluorobenzyl)-3-azaspiro[5.5]undecan-9-yl)methyl)-2-(2,6-dioxopiperidin-3-yl)-6,7-dihydropyrrolo[3,4-f]isoindole-1,3(2H,5H)-dione], the DC50 is more than 0.1 µM.

Regarding `C[C@H]1CC2(CCN(c3ccc([C@@H]4c5ccc(O)cc5CC[C@@H]4c4ccccc4)cc3)CC2)CN1CC(=O)N1Cc2cc3c(cc2C1)C(=O)N(C1CCC(=O)NC1=O)C3=O` (mixture of isomers) [E 151, Rac-2-(2,6-dioxopiperidin-3-yl)-6-(2-((S)-8-(4-((1R,2S)-6-hydroxy-2-phenyl-1,2,3,4-tetrahydronaphthalen-1-yl)phenyl)-3-methyl-2,8-diazaspiro[4.5]decan-2-yl)acetyl)-6,7-dihydropyrrolo[3,4-f]isoindole-1,3(2H,5H)-dione], the DC50 was more than 0.1 µM.

`O=C1CCC(N2C(=O)c3cc4c(cc3C2=O)CN(C(=O)[C@H]2CC[C@H](N3CC(Oc5ccc([C@H]6c7ccc(O)cc7CC[C@H]6c6ccccc6)cc5)C3)CC2)C4)C(=O)N1` (stereo partly drawn) [E 388, 2-(2,6-dioxopiperidin-3-yl)-6-((1S,4r)-4-(3-(4-((1S,2R)-6-hydroxy-2-phenyl-1,2,3,4-tetrahydronaphthalen-1-yl)phenoxy)azetidin-1-yl)cyclohexane-1-carbonyl)-6,7-dihydropyrrolo[3,4-f]isoindole-1,3(2H,5H)-dione]: the DC50 lay in the range of 0.01 to 0.1 µM.

Still in this experiment, the particulars now being: compounds 16 hours, Table A does not say whether T47D or MCF7, read-out: Potency (DC50).
For the compound `C[C@@H]1Cc2cc(O)ccc2[C@@H](c2c(F)cc(C3=CCC4(CC3)CCN(C(=O)CN3Cc5cc6c(cc5C3)C(=O)N(C3CCC(=O)NC3=O)C6=O)CC4)cc2F)N1CC(F)F` (stereo partly drawn) [E 446, 6-(2-(9-(4-((1S,3R)-2-(2,2-difluoroethyl)-6-hydroxy-3-methyl-1,2,3,4-tetrahydroisoquinolin-1-yl)-3,5-difluorophenyl)-3-azaspiro[5.5]undec-8-en-3-yl)-2-oxoethyl)-2-(2,6-dioxopiperidin-3-yl)-6,7-dihydropyrrolo[3,4-f]isoindole-1,3(2H,5H)-dione tetrahydroisoquinolin], the DC50 is more than 0.1 µM.

The record behind these values is patent US20240190880A1 (THE REGENTS OF THE UNIVERSITY OF MICHIGAN, priority 2021, published 2024).
